Experimental data from paper PMC8619001, “Discovery of New Ginsenol-Like Compounds with High Antiviral Activity” (Molecules, 2021).

Tested on: influenza virus A/Puerto Rico/8/34 (H1N1), GS-R virus
Test: microbe, parasite or virus in culture
Type: cell-based

For `CC(=O)NC12CC(C)(C)C3CCC1(C)CCCC32C` [Compound 1a, (1S,3aR,4R,7aS)-N-(2,2,4,7a-tetramethyloctahydro-1,4-etanoinden-3a-yl)-acetamide], the “Fold increase of IC50 versus virus passaged without GS” value was “almost five-fold higher” and the IC50 (unidentified influenza virus, H1N1, MDCK, read-out: IC50 to GS) was 106 µM.
